Test results taken from patent publication US6294672A, “Indole and azaindole inhibitors of Fructose-1,6-biphosphatase” (Metabasis Therapeutics, Inc., priority 2000, dated 2001).
Where two headings read alike, the source gives them in different places.

Experiments:
[1] = molecular target: T1, human liver FBPase (hlFBPase) (Homo sapiens, UniProt P09467); assay: Inhibition of Human Liver FBPase; assay type: biochemical
T1 construct: made in house; host or cells: E. coli BL21 (transformed strain from Dr. M. R. El-Maghrabi, SUNY Stony Brook)
T1 sequence (P09467 2-338 limits assumed): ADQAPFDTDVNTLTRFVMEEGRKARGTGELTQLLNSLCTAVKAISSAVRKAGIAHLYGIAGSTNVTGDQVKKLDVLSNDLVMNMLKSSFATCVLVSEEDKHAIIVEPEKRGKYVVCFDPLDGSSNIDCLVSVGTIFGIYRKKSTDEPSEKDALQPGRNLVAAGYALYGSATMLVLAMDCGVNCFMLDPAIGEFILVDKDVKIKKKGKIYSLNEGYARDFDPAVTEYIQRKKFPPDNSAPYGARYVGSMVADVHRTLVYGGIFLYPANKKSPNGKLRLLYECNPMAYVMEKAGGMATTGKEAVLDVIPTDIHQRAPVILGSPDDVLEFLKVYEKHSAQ
Experimental: (§1) Enzymatic activity was measured spectrophotometrically in reactions that coupled the formation of product (fructose 6-phosphate) to the reduction of dimethylthiazoldiphenyltetrazolium bromide (MTT) via NADP and phenazine methosulfate (PMS), using phosphoglucose isomerase and glucose 6-phosphate dehydrogenase as the coupling enzymes. Reaction mixtures (200 μL) were made up in 96-well microtitre plates, and consisted of 50 mM Tris-HCl, pH 7.4, 100 mM KCl, 5 mM EGTA, 2 mM MgCl2, 0.2 mM NADP, 1 mg/mL BSA, 1 mM MTT, 0.6 mM PMS, 1 unit/mL phosphoglucose isomerase, 2 units/mL glucose 6-phosphate dehydrogenase, and 0.150 mM substrate (fructose 1,6-bisphosphate). Inhibitor concentrations were varied from 0.01 μM to 10 μM. Reactions were started by the addition of 0.002 units of pure hlFBPase and were monitored for 7 minutes at 590 nm in a Molecular Devices Plate Reader (37° C.).

[2] = molecular target: T2, rat liver FBPase (Rattus norvegicus, UniProt P19112); assay: In vitro Inhibition of Rat Liver FBPase; assay type: biochemical; details: assayed as for human liver FBPase
T2 construct: made in house; host or cells: E. coli BL21 (transformed strain from Dr. M. R. El-Maghrabi, SUNY Stony Brook)
T2 sequence (P19112 2-363 limits assumed): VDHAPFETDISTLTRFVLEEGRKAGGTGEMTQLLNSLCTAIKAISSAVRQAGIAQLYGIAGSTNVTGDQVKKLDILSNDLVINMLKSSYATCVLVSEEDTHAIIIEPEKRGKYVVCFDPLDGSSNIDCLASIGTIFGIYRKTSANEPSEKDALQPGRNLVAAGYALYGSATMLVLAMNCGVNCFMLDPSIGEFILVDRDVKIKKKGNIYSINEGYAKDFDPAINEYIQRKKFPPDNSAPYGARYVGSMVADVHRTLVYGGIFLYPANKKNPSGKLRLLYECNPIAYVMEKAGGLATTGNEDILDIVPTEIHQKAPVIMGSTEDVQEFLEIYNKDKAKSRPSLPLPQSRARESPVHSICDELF
Experimental: as §1, with “E. coli strain BL21 transformed with a human liver FBPase-encoding plasmid was obtained from Dr. M. R. El-Maghrabi at the State University of New York at Stony Brook. hIFBPase was typically purified from 10 liters of E. coli culture as described (M. Gidh-Jain et al., The Journal of Biological Chemistry 1994, 269, 27732-27738). Enzymatic” for “Enzymatic”
(§2) E. coli strain BL21 transformed with a rat liver FBPase-encoding plasmid is obtained from Dr. M. R. El-Maghrabi at the State University of New York at Stony Brook, and purified as described (El-Maghrabi, M. R., and Pilkis, S. J. Biochem. Biophys. Res. Commun. 1991, 176, 137-144). Mouse liver FBPase is obtained by homogenizing freshly isolated mouse liver in 100 mM Tris-HCl buffer, pH 7.4, containing 1 mM EGTA, and 10% glycerol. The homogenate is clarified by centrifugation, and the 45-75% ammonium sulfate fraction prepared. This fraction is redissolved in the homogenization buffer and desalted on a PD-10 gel filtration column (Biorad) eluted with same. This partially purified fraction is used for enzyme assays. Both rat liver and mouse liver FBPase are assayed as described for human liver FBPase. Generally, as reflected by the higher IC50 values, the rat and mouse liver enzymes are less sensitive to inhibition by the compounds tested than the human liver enzyme.

[3] = test system: glucose production from lactate/pyruvate in isolated rat hepatocytes; assay: Inhibition of Gluconeogenesis in Rat Hepatocytes; assay type: cell-based
Experimental: Hepatocytes were prepared from overnight fasted Sprague-Dawley rats (250-300 g) according to the procedure of Berry and Friend (Berry, M. N., Friend, D. S., J. Cell. Biol. 1969, 43, 506-520) as modified by Groen (Groen, A. K., Sips, H. J., Vervoorn, R. C., Tager, J. M., Eur. J. Biochem. 1982, 122, 87-93). Hepatocytes (75 mg wet weight/mL) were incubated in 1 mL Krebs-bicarbonate buffer containing 10 mM Lactate, 1 mM pyruvate, 1 mg/mL BSA, and test compound concentrations from 1 to 500 μM. Incubations were carried out in a 95% oxygen, 5% carbon dioxide atmosphere in closed, 50-mL Falcon tubes submerged in a rapidly shaking water bath (37° C.). After 1 hour, an aliquot (0.25 mL) was removed, transferred to an Eppendorf tube and centrifuged. 50 μL of supernatant was then assayed for glucose content using a Sigma Glucose Oxidase kit as per the manufacturer's instructions.

[4] = molecular target: T3, Mouse liver FBPase (Mus musculus, UniProt Q9QXD6); assay: In vitro Inhibition of Mouse Liver FBPase; assay type: biochemical; details: partially purified mouse liver fraction, assayed as for human liver FBPase
T3 construct: Mouse liver FBPase is obtained by homogenizing freshly isolated mouse liver; from tissue; host or cells: freshly isolated mouse liver; 45-75% ammonium sulfate fraction, desalted
T3 sequence (Q9QXD6 2-338 limits assumed): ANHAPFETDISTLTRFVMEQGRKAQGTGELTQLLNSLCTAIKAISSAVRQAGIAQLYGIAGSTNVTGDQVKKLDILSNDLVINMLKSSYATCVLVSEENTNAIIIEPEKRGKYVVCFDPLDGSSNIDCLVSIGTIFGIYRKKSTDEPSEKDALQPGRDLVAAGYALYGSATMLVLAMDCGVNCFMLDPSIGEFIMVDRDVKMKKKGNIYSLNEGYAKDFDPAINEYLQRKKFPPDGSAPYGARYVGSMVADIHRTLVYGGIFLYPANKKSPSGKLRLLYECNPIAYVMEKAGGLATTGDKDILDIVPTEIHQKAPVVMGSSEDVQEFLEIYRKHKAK
Experimental: as §1, with “E. coli strain BL21 transformed with a human liver FBPase-encoding plasmid was obtained from Dr. M. R. El-Maghrabi at the State University of New York at Stony Brook. hIFBPase was typically purified from 10 liters of E. coli culture as described (M. Gidh-Jain et al., The Journal of Biological Chemistry 1994, 269, 27732-27738). Enzymatic” for “Enzymatic”
as §2

[5] = 0.150 mM fructose 1,6-bisphosphate, pH 7.4, 37° C., read-out: HL FBPase IC50
[6] = Rattus norvegicus, Hepatocyte, 1 hour

IC50 [1, 5]	IC50 [2]	IC50 [4]	SMILES	inhibition at 500 µM [3, 6]	further results
4.5 µM			O=P(O)(O)c1ccc(-c2cn3cc(Cl)ccc3n2)o1 [Compound 14.2, 9-Aza-5-chloro-2-(2-(5-phosphono)furanyl)indole]		
			Nc1cccc2c(-c3ccccc3)c(C(=O)NCP(=O)(O)O)[nH]c12 [Compound 2.1, 7-amino-3-phenyl-2-(phosphonomethylaminocarbonyl)indole]		dose-dependent inhibition of hlFBPase (FIG. 2) [1]: dose-dependent inhibition
8.8 µM	> 20 µM	> 20 µM	O=P(O)(O)c1ccc(-c2cc3ccccc3[nH]2)o1 [Compound 5.1, 2-(2-(5-phosphono)furanyl)indole]	39.6%	
32.5 µM			CC(C)Cn1c(-c2ccc(P(=O)(O)O)o2)cc2c(N)cccc21 [Compound 9.1, N^1-isobutyl-4-amino-2-(2-(5-phosphone)furanyl)indole]	57%	dose dependent inhibition of glucose production in rat hepatocytes (FIG. 3) [3]: inhibit glucose production in a dose dependent manner
			Nc1ncnc2c1ncn2[C@@H]1O[C@H](COP(=O)(O)O)[C@@H](O)[C@H]1O [adenosine monophosphate (AMP), adenosine monophosphate, reference compound]		IC50 ([1]; under the reaction conditions of Example A, read-out: concentration required to inhibit half of the hlFBPase activity): 1 µM
10 µM			Nc1cccc2cc(C(=O)NCP(=O)(O)O)[nH]c12 [Compound 1.1, 7-Amino-2-(phosphonomethylaminocarbonyl)indole]		dose-dependent inhibition of hlFBPase (FIG. 2) [1]: dose-dependent inhibition
10 µM			O=P(O)(O)COCc1nc2ccccn2c1-c1ccccc1 [Compound 11.3, 9-aza-3-phenyl-2-phosphono-methoxymethylindole]		
8.5 µM	> 20 µM	> 20 µM	O=P(O)(O)c1ccc(-c2[nH]c3ccccc3c2-c2ccccc2)o1 [Compound 7.2, 3-phenyl-2-(2-(5-phosphono)furanyl)indole]		
			Nc1cccc2c(CCc3ccccc3)c(C(=O)NCP(=O)(O)O)[nH]c12 [Compound 3.1, 7-amino-3-(2-phenethyl)-2-(phosphonomethylaminocarbonyl)indole]	41.5%	
10 µM	90 µM		Nc1cccn2c(-c3ccccc3)c(COCP(=O)(O)O)nc12 [Compound 11.5, 7-amino-9aza-3-phenyl-2-phosphonomethoxymethyl-indole]		inhibition at 250 µM ([3]; Rattus norvegicus, Hepatocyte, 250 μM, 1 hour): 50%
10.7 µM	> 20 µM	> 20 µM	CC(C)Cn1c(-c2ccc(P(=O)(O)O)o2)cc2ccccc21 [Compound 6.1, 1-isobutyl-2-(2-(5-phosphono)furanyl)indole]	64.4%	dose dependent inhibition of glucose production in rat hepatocytes (FIG. 3) [3]: inhibit glucose production in a dose dependent manner
90 µM			O=C(NCP(=O)(O)O)c1cn2ccccc2n1 [Compound 12.1, 9-aza-2-phosphonomethylaminocarbonylindole]		
8.67 µM	> 20 µM	> 20 µM	O=P(O)(O)c1ccc(-c2[nH]c3ccccc3c2Br)o1 [Compound 7.1, 2-(2-(5-phosphono)furanyl)-3-bromoindole]	45.4%	
2.5 µM			CC(C)Cc1c(-c2ccc(P(=O)(O)O)o2)[nH]c2ccc(Cl)cc12 [Compound 10.1, 5-chloro-3-isobutyl-2-(2-(5-phosphono)furanyl)indole]		
1.6 µM	> 25 µM	> 30 µM	Cc1cccn2c(CC(C)C)c(-c3ccc(P(=O)(O)O)o3)nc12 [Compound 14.4, 9-Aza-3-isobutyl-7-methyl-2-(2-(5-phosphono)furanyl)indole]		

SMILES	IC50 [1, 5]	IC50 [2]	IC50 [4]	inhibition at 500 µM [3, 6]	further results
COc1ccc2[nH]c(C(=O)NCP(=O)(O)O)cc2c1 [Compound 1.3, Disodium 5-methoxy-2-(phosphonomethylaminocarbonyl)indole]	60.6 µM			3.4%	
